# Source: patent US4735963A, “Anti-platelet aggregating 1,3-oxathiane derivatives, compositions, and method of use therefor” (Imperial Chemical Industries PLC, priority 1985, dated 1988)
# System: TXA2
# Assay: rabbit aortal strip model, test (a)
# Assay type: cell-based
# Settings: agonist TXA2 or U46619
# Description: (a) The rabbit aortal strip model devised by Piper and Vane (Nature, 1969, 223, 29-35) using as agonist a freshly prepared sample of TXA2, generated by addition of arachidonic acid (25 μg) to citrated, platelet rich rabbit plasma (250 μl) and allowing the mixture to aggregate fully over 90 seconds before use; alternatively the TXA2 mimetic agent known as U46619 (described by R L Jones et alia, in "Chemistry, Biochemistry and Pharmacological Activity of Prostanoids" edited by S M Roberts and F Scheinmann, at page 211, Pergamon Press, 1979) may be used as the agonist;
structure (smiles),measurement,value
"CC1(C)O[C@@H](c2ccccc2O)[C@@H](C/C=C\CCCC(=O)O)CS1 (relative stereo) [Example 1, 5(Z)-7-(6-o-hydroxyphenyl-2,2-dimethyl-1,3-oxathian-cis-5-yl)heptenoic acid]",pA2 in test (a),7.42
